This assay addresses T1, Adenosine receptor A2b (Homo sapiens, UniProt P29275).
T1 sequence (P29275 whole entry): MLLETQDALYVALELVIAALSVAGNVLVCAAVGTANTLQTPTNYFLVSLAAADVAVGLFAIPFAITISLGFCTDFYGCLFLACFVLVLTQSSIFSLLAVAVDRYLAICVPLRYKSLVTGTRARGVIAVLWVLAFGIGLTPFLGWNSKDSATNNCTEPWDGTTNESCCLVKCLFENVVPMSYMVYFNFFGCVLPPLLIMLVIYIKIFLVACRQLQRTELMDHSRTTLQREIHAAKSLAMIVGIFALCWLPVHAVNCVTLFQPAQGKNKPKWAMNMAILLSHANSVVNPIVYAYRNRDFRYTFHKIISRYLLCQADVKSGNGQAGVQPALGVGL
Briefly: Displacement of [3H]DPCPX from human adenosine A2B receptor expressed in HEK cell membrane incubated for 30 mins by microplate beta scintillation counting based radioligand inhibition assay.

This passage reports Ki results from BindingDB's records for doi:10.1016/j.ejmech.2021.113607 (Institute of Medical Biology Pas, 2021).

pKi: −log10 of the molar value.

On to `CCNC(=O)[C@H]1O[C@@H](n2cnc3c(NCCCCc4ccccc4)ncnc32)[C@H](O)[C@@H]1O`, for which the pKi is 5.48.
